Data: PubChem BioAssay (NCI)
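Exposure lasted 48 hours, with cells grown in 96-well plates and compounds tested at five concentrations. The concentration for 50% growth inhibition is given as GI50. At the TGI there is no net growth.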

Key:
Test in all cases: NCI-60 cell line screen, 48 h
[1] = system: A498 renal
[2] = system: ACHN renal
[3] = system: COLO 205 colon
[4] = system: IGROV1 ovarian
[5] = system: KM12 colon
[6] = system: NCI-H522 lung
[7] = system: NCI/ADR-RES ovarian
[8] = system: RXF 393 renal
[9] = system: SF-295 CNS
[10] = system: SF-539 CNS

SMILES	GI50 [1] [µM]	TGI [1] [µM]	GI50 [2] [µM]	TGI [2] [µM]	GI50 [3] [µM]	TGI [3] [µM]	GI50 [4] [µM]	TGI [4] [µM]	GI50 [5] [µM]	TGI [5] [µM]	GI50 [6] [µM]	TGI [6] [µM]	GI50 [7] [µM]	TGI [7] [µM]	GI50 [8] [µM]	TGI [8] [µM]	GI50 [9] [µM]	TGI [9] [µM]	GI50 [10] [µM]	TGI [10] [µM]
COc1cc(C(=O)Nc2ccc(-c3nc4ccccc4[nH]3)cc2)cc(OC)c1OC	7.07	25.4	8.23	23.1	15.3	39.1	14.1	31.5	9.22	32.5	7.75	29.9	13	73.4	10.7	30.9	10.7	25.5	11.6	27.9
COC(=O)c1sc(=S)c2sc(C(=O)OC)c(C(=O)OC)c2c1C(=O)OC	22.2	52.1	40.3	> 100	69.8	> 100	37.1	> 100	36.4	> 100	31	91.5	35.4	> 100	41.7	> 100	39.3	> 100	36.7	> 100
CSc1ccc2c(c1)N(CCCN(C)C)c1ccccc1S2	–	24.6	–	24.1	–	31.7	–	28	–	24.9	–	26.6	–	26.2	–	22.5	–	26.8	–	44.9
COc1ccccc1CNCCCN1C(=O)c2ccc3c4c(ccc(c24)C1=O)C(=O)N(CCCNCCCCN)C3=O	0.972	2.55	0.576	11.1	0.125	0.263	0.464	15.9	0.332	1.29	0.182	0.367	3.58	22.8	0.34	1.41	0.678	2.79	0.296	0.818
COc1ccc([C@H]2c3[nH]c4ccccc4c3C[C@H]3C(=O)N(CCCCCCC(=O)NO)CC(=O)N23)cc1	2.91	9.55	1.92	12.8	2.04	15	2.32	> 33.3	2.73	> 33.3	1.4	> 33.3	4.26	> 33.3	1.33	6.12	1.91	12.4	2.38	> 33.3
COc1cc(OC)c(OC)cc1/C=C\c1ccnc2ccccc12	–	5.64	–	> 100	–	3.86	–	> 72.9	–	> 67.5	–	4.25	–	12.1	–	5.28	–	3.55	–	1.32
